Where two headings read alike, the source gives them in different places.
Assays:
[1] = system: erythrocytic stages of P. falciparum NF54; test: Plasmodium falciparum in vitro assay, [3H] hypoxanthine incorporation; type: cell-based; details: Plasmodium falciparum, Erythrocyte, 72 h, P. falciparum NF54 in human red blood cells, 48 h + 24 h incubation
Protocol: In Vitro Antimalarial Activity: Plasmodium falciparum In Vitro Assay In vitro activity against erythrocytic stages of P. falciparum in human red blood cells is determined using a [^3H] hypoxanthine incorporation assay. […] Thereafter, the parasite cultures incubated in screening medium containing washed human red blood cells at 2.5% hematocrit (0.3% parasitemia) are added to the serially diluted compounds and incubated in a humidifying atmosphere at 37° C., 4% CO2, 3% O2, and 93% N2. After 48 h, [^3H] hypoxanthine (0.5 μCi) is added to each well of a plate. The plates are incubated for a further 24 h under the same conditions then harvested with a Betaplate cell harvester (Wallac) and washed with distilled water. The dried filters are inserted into a plastic foil with 10 mL of scintillation fluid, and counted in a Betaplate liquid scintillation counter. IC50 values are calculated from sigmoidal inhibition curves using Microsoft Excel.

[2] = system: P. berghei strain GFP-ANKA; test: In vivo antimalarial efficacy study in infected NMRI mice; details: Plasmodium berghei; female NMRI mice infected with P. berghei GFP-ANKA; single oral dose of 100 mg/kg 24 h after infection; parasitemia 48 h after drug treatment (day 3); read-out: Activity (inhibition of parasitemia) expressed as a percent relative to the control group
Protocol: In Vivo Antimalarial Efficacy Studies
In vivo antimalarial activity is assessed for groups of three female NMRI mice (20-22 g) intravenously infected on day 0 with P. berghei strain GFP-ANKA (0.2 mL heparinized saline suspension containing 2×10^7 parasitized erythrocytes). In control mice, parasitemia typically rises to approximately 40% by day 3 after infection. Compounds are formulated in Tween 80/ethanol (7%/3%) usually at concentrations of 10 mg/mL. Compounds are administered in a volume of 10 mL/kg orally as single doses (1×100 mg/kg, 24 h after infection). 48 h after drug treatment (day 3 post-infection), 1 μl tail blood is taken, resuspended in 1 mL PBS buffer and parasitemia determined with a FACScan (Becton Dickinson) by counting 100′000 red blood cells. Activity is calculated as the difference between the mean value of the control group and treated groups expressed as a percent relative to the control group.

[3] = screening medium with Albumax (5 g/L), read-out: IC50 on NF54 (with Albumax)
[4] = screening medium with human serum (50% final concentration), read-out: IC50 on NF54 (with 50% Serum)

| SMILES | IC50 [1, 3] [nM] | IC50 [1, 4] [nM] | inhibition in vivo at 100 mg/kg [2] [%] |
| --- | --- | --- | --- |
| CCCOc1ccc(C=CC(=O)N(Cc2ccc(N3CCN(C(C)=O)CC3)cc2)[C@@H](Cc2ccccc2)C(=O)N2CCN(Cc3ccc(C#N)cc3)CC2)cc1 [Example 28, (S)-N-[4-(4-Acetyl-piperazin-1-yl)-benzyl]-N-{1-benzyl-2-[4-(4-cyano-benzyl)-piperazin-1-yl]-2-oxo-ethyl}-3-(4-propoxy-phenyl)-acrylamide] | 1.1 | 3.6 | 99.3 |
| CC(=O)N1CCN(c2ccc(CN(C(=O)C=Cc3ccc(C(F)(F)F)cc3)[C@@H](Cc3ccccc3)C(=O)N3CCN(Cc4ccc(C#N)cc4)CC3)cc2)CC1 [Example 24, (S)-N-[4-(4-Acetyl-piperazin-1-yl)-benzyl]-N-{1-benzyl-2-[4-(4-cyano-benzyl)-piperazin-1-yl]-2-oxo-ethyl}-3-(4-trifluoromethyl-phenyl)-acrylamide] | 2.8 | 13.9 | 79.2 |
| CC(=O)N1CCN(c2ccc(CN(C(=O)C=Cc3ccc(S(C)(=O)=O)cc3)[C@@H](Cc3ccccc3)C(=O)N3CCN(Cc4ccc(N(C)C)cc4)CC3)cc2)CC1 [Example 16, (S)-N-[4-(4-Acetyl-piperazin-1-yl)-benzyl]-N-{1-benzyl-2-[4-(4-dimethylamino-benzyl)-piperazin-1-yl]-2-oxo-ethyl}-3-(4-methanesulfonyl-phenyl)-acrylamide] | 5.5 | 13.3 | 85.9 |
| CCOc1ccc(C=CC(=O)N(Cc2ccc(N3CCN(C(C)=O)CC3)cc2)[C@@H](Cc2ccccc2)C(=O)N2CCN(Cc3ccc(N(C)CCO)cc3)CC2)cn1 [Example 53, (S)-N-[4-(4-Acetyl-piperazin-1-yl)-benzyl]-N-[1-benzyl-2-(4-{4-[(2-hydroxy-ethyl)-methyl-amino]-benzyl}-piperazin-1-yl)-2-oxo-ethyl]-3-(6-ethoxy-pyridin-3-yl)-acrylamide] | 4.3 | 12.4 | 52.3 |
| COC(=O)c1ccc(C=CC(=O)N(Cc2ccc(N3CCN(C(C)=O)CC3)cc2)[C@@H](Cc2ccccc2)C(=O)N2CCN(Cc3ccccc3)CC2)cc1 [Example 5, (S)-4-(2-{[4-(4-Acetyl-piperazin-1-yl)-benzyl]-[1-benzyl-2-(4-benzyl-piperazin-1-yl)-2-oxo-ethyl]-carbamoyl}-vinyl)-benzoic acid methyl ester] | 3.9 | 12 | < 40 |
| CC(=O)N1CCN(c2ccc(CN(C(=O)C=Cc3ccc(C(C)C)cc3)[C@@H](Cc3ccccc3)C(=O)N3CCN(Cc4ccc(N(C)C)cc4)CC3)cc2)CC1 [Example 23, (S)-N-[4-(4-Acetyl-piperazin-1-yl)-benzyl]-N-{1-benzyl-2-[4-(4-dimethylamino-benzyl)-piperazin-1-yl]-2-oxo-ethyl}-3-(4-isopropyl-phenyl)-acrylamide] | 1.3 | 9.5 | 99.1 |
| CC(=O)N1CCN(c2ccc(CN(C(=O)C=Cc3ccc(OC(F)F)cc3)[C@@H](Cc3ccccc3)C(=O)N3CCN(Cc4ccc(N(C)C)cc4)CC3)cc2)CC1 [Example 21, (S)-N-[4-(4-Acetyl-piperazin-1-yl)-benzyl]-N-{1-benzyl-2-[4-(4-dimethylamino-benzyl)-piperazin-1-yl]-2-oxo-ethyl}-3-(4-difluoromethoxy-phenyl)-acrylamide] | 1.9 | 7 | 98.8 |
| CC(=O)N1CCN(c2ccc(CN(C(=O)C=Cc3ccc(OC(C)C)cc3)[C@@H](Cc3ccccc3)C(=O)N3CCN(Cc4ccc(Cl)cc4)CC3)cc2)CC1 [Example 39, (S)-N-[4-(4-Acetyl-piperazin-1-yl)-benzyl]-N-{1-benzyl-2-[4-(4-chloro-benzyl)-piperazin-1-yl]-2-oxo-ethyl}-3-(4-isopropoxy-phenyl)-acrylamide] | 2.3 | 11 | 99 |
| CC(=O)N1CCN(c2ccc(CN(C(=O)C=Cc3ccc(C(C)C)cc3)[C@@H](Cc3ccccc3)C(=O)N3CCN(Cc4ccc(C#N)cc4)CC3)cc2)CC1 [Example 32, (S)-N-[4-(4-Acetyl-piperazin-1-yl)-benzyl]-N-{1-benzyl-2-[4-(4-cyano-benzyl)-piperazin-1-yl]-2-oxo-ethyl}-3-(4-isopropyl-phenyl)-acrylamide] | 0.5 | 4.4 | 98.5 |
| CC(=O)N1CCN(c2ccc(CN(C(=O)C=Cc3ccc(C(C)C)cc3)[C@@H](Cc3ccccc3)C(=O)N3CCN(Cc4ccccc4)CC3)cc2)CC1 [Example 10, (S)-N-[4-(4-Acetyl-piperazin-1-yl)-benzyl]-N-[1-benzyl-2-(4-benzyl-piperazin-1-yl)-2-oxo-ethyl]-3-(4-isopropyl-phenyl)-acrylamide] | 3 | 8.6 | 96 |
| CC(=O)Nc1ccc(C=CC(=O)N(Cc2ccc(N3CCN(C(C)=O)CC3)cc2)[C@@H](Cc2ccccc2)C(=O)N2CCN(Cc3ccc(C#N)cc3)CC2)cc1 [Example 27, (S)-3-(4-Acetylamino-phenyl)-N-[4-(4-acetyl-piperazin-1-yl)-benzyl]-N-{1-benzyl-2-[4-(4-cyano-benzyl)piperazin-1-yl]-2-oxo-ethyl}-acrylamide] | 1.8 | 12.9 | < 40 |
| CC(=O)N1CCN(c2ccc(CN(C(=O)C=Cc3ccc(C(F)(F)F)cc3)[C@@H](Cc3ccccc3)C(=O)N3CCN(Cc4ccc(N(C)CCO)cc4)CC3)cc2)CC1 [Example 50, (S)-N-[4-(4-Acetyl-piperazin-1-yl)-benzyl]-N-[1-benzyl-2-(4-{4-[(2-hydroxy-ethyl)-methyl-amino]-benzyl}-piperazin-1-yl)-2-oxo-ethyl]-3-(4-trifluoromethyl-phenyl)-acrylamide] | 1.6 | 9.3 | 98 |
| CC(=O)N1CCN(c2ccc(CN(C(=O)C=Cc3ccc(OC(F)F)cc3)[C@@H](Cc3ccccc3)C(=O)N3CCN(Cc4ccc(C#N)cc4)CC3)cc2)CC1 [Example 31, (S)-N-[4-(4-Acetyl-piperazin-1-yl)-benzyl]-N-{1-benzyl-2-[4-(4-cyano-benzyl)-piperazin-1-yl]-2-oxo-ethyl}-3-(4-difluoromethoxy-phenyl)-acrylamide] | 1.7 | 3.8 | 88.9 |
| CC(=O)N1CCN(c2ccc(CN(C(=O)C=Cc3ccc(OC(F)F)cc3)[C@@H](Cc3ccccc3)C(=O)N3CCN(Cc4ccc(N(C)CCO)cc4)CC3)cc2)CC1 [Example 60, (S)-N-[4-(4-Acetyl-piperazin-1-yl)-benzyl]-N-[1-benzyl-2-(4-{4-[(2-hydroxy-ethyl)-methyl-amino]-benzyl}-piperazin-1-yl)-2-oxo-ethyl]-3-(4-difluoromethoxy-phenyl)-acrylamide] | 3 | 8.1 | 78.3 |
| CCOc1ccc(C=CC(=O)N(Cc2ccc(N3CCN(C(C)=O)CC3)cc2)[C@@H](Cc2ccccc2)C(=O)N2CCN(Cc3ccc(N(C)C)cc3)CC2)cc1 [Example 15, (S)-N-[4-(4-Acetyl-piperazin-1-yl)-benzyl]-N-{1-benzyl-2-[4-(4-dimethylamino-benzyl)-piperazin-1-yl]-2-oxo-ethyl}-3-(4-ethoxy-phenyl)-acrylamide] | 1.7 | 6.8 | 99 |
| CC(=O)N1CCN(c2ccc(CN(C(=O)C=Cc3ccc(OC(C)C)cc3)[C@@H](Cc3ccccc3)C(=O)N3CCN(Cc4ccccc4)CC3)cc2)CC1 [Example 9, (S)-N-[4-(4-Acetyl-piperazin-1-yl)-benzyl]-N-[1-benzyl-2-(4-benzyl-piperazin-1-yl)-2-oxo-ethyl]-3-(4-isopropoxy-phenyl)-acrylamide] | 2.4 | 7.3 | 99.1 |
| CC(=O)Nc1ccc(C=CC(=O)N(Cc2ccc(N3CCN(C(C)=O)CC3)cc2)[C@@H](Cc2ccccc2)C(=O)N2CCN(Cc3ccccc3)CC2)cc1 [Example 7, (S)-3-(4-Acetylamino-phenyl)-N-[4-(4-acetyl-piperazin-1-yl)benzyl]-N-[1-benzyl-2-(4-benzyl-piperazin-1-yl)-2-oxo-ethyl]-acrylamide] | 3.1 | 40 | 44.7 |
| CC(=O)N1CCN(c2ccc(CN(C(=O)C=Cc3ccc(OC(C)C)cc3)[C@@H](Cc3ccccc3)C(=O)N3CCN(Cc4ccc(S(C)(=O)=O)cc4)CC3)cc2)CC1 [Example 44, (S)-N-[4-(4-Acetyl-piperazin-1-yl)-benzyl]-N-{1-benzyl-2-[4-(4-(methylsulfonyl)-benzyl)-piperazin-1-yl]-2-oxo-ethyl}-3-(4-isopropoxyphenyl)-acrylamide] | 0.4 | 2.8 | 99 |

From patent publication US8889688B2, “Piperazines as antimalarial agents” (Actelion Pharmaceuticals Ltd., priority 2011, dated 2014)
